Reference: US20080274892A1, “Novel Haloalkylsulfonanilide Derivative, Herbicide, and Method of Use Thereof” (priority 2005, published 2008)

Columns and labels:
bulrush [1] = assay: Test Example 1: herbicidal efficacy on rice paddy weeds pre-emergence; type: in vivo, Scirpus juncoides; conditions: 21 days
Method: (§1) A 75 cm^2 plastic pot was filled with soil (clay loam) and planted seeds of bulrush which is a rice paddy weed. After covering the top with 75 cm^3 soil mixed with seeds of false pimpernel, the pot was filled with water so that the soil submerged under 5 cm depth of water. The predetermined effective dosage ([…]) of a formulation containing the compound of the present invention prepared according to Formulation Example 1-4 as an active ingredient was diluted in water and added to the pot water surface dropwise. The pot was kept in a hot house for 21 days and the herbicidal efficacy was investigated. The herbicidal efficacy was evaluated according to the following standard by comparing with untreated control. “-” in the table represents test not done.
(§2) The standard of judgment for herbicidal efficacy (degree of growth inhibition) and phytotoxicity 4 . . . 90%-100% of herbicidal efficacy or phytotoxicity 3 . . . 70%-89% of herbicidal efficacy or phytotoxicity 2 . . . 40%-69% of herbicidal efficacy or phytotoxicity 1 . . . 1%-39% of herbicidal efficacy or phytotoxicity 0 . . . 0% of herbicidal efficacy or phytotoxicity

[2] = test system: paddy rice plant (cultivar: Nihonbare); assay: Test Example 3: phytotoxicity test for transplanted paddy rice plant; type: in vivo; conditions: 21 days after treatment; for Phytotoxicity to paddy rice (grade): dosage 1000 g/ha active ingredient, vs untreated control; for Phytotoxicity to paddy rice: transplanted rice
Method: as §2
A 75 cm^2 plastic pot was filled with soil (clay loam), and water was added so that the soil was submerged under 5 cm depth of water. Two paddy rice plant (cultivar: Nihonbare) at two leaves stage were transplanted at the depth of 1 cm and kept in a hot house. […] The pot was kept in a hot house for 21 days after the treatment and the phytotoxicity was investigated and evaluated according to the standard in Test Example 1 by comparing with the untreated control. “-” in the table represents test not done.

false pimpernel [3] = assay: Test Example 2: herbicidal efficacy on rice paddy weeds post-emergence; type: in vivo, Lindernia pyxidaria; conditions: 21 days after treatment
Excerpt: as §2
(§3) A 75 cm^2 plastic pot was filled with soil (clay loam) and planted seeds of barnyard glass and bulrush which is a rice paddy weed. After covering the top with 75 cm^3 soil mixed with seeds of false pimpernel, the pot was filled with water so that the soil submerged under 5 cm depth of water and kept in a hot house. […] The pot was kept in a hot house for 21 days after the treatment and the herbicidal efficacy was investigated and evaluated according to the standard in Test Example 1 by comparing with the untreated control. “-” in the table represents test not done.

bulrush [4] = assay: as above; type: in vivo, Scirpus juncoides; conditions: 21 days after treatment
Excerpt: as §2, §3

barnyard glass = assay: as above; type: in vivo, Echinochloa crus-galli; conditions: 21 days after treatment
Excerpt: as §2, §3

false pimpernel [5] = assay: Test Example 1: herbicidal efficacy on rice paddy weeds pre-emergence; type: in vivo, Lindernia pyxidaria; conditions: 21 days
Method: as §1, §2

[6] = dosage 1000 g/ha active ingredient, vs untreated control
[7] = treated 5 days after transplantation
[8] = dosage 1000 g/ha active ingredient, post-emergence treatment at one leaf stage, vs untreated control
[9] = dosage 300 g/ha, post-emergence, one leaf stage
[10] = dosage 1000 g/ha, treated 5 days after transplantation
[11] = dosage 1000 g/ha, post-emergence, one leaf stage

Row | SMILES | Bulrush pre (herbicidal efficacy grade) (bulrush [1]; dosage 300 g/ha) | Phytotoxicity to paddy rice ([2]; dosage 300 g/ha) | False pimpernel post (herbicidal efficacy grade) (false pimpernel [3]; [9]) | Bulrush post (herbicidal efficacy grade) (bulrush [4]; [9]) | Burnyard grass post (herbicidal efficacy grade) (barnyard glass; [9]) | False pimpernel pre (herbicidal efficacy grade) (false pimpernel [5]; dosage 300 g/ha) | Bulrush pre (herbicidal efficacy grade) (bulrush [1]; dosage 1000 g/ha) | Phytotoxicity to paddy rice [2, 10] | Bulrush post (herbicidal efficacy grade) (bulrush [4]; [11]) | Burnyard grass post (herbicidal efficacy grade) (barnyard glass; [11]) | other results
1 | COCOc1cccc(CN2CC(C)(C)OC2=O)c1NS(=O)(=O)C(F)(F)F [1-212] | – | – | – | – | – | – | – | – | – | – | Bulrush pre (herbicidal efficacy grade) (bulrush [1]; [6]): 4 (90%-100% of herbicidal efficacy or phytotoxicity); Phytotoxicity to paddy rice (grade) [2, 7]: 3 (70%-89% of herbicidal efficacy or phytotoxicity); False pimpernel post (herbicidal efficacy grade) (false pimpernel [3]; [8]): 2 (40%-69% of herbicidal efficacy or phytotoxicity); Bulrush post (herbicidal efficacy grade) (bulrush [4]; [8]): 2 (40%-69% of herbicidal efficacy or phytotoxicity); Burnyard grass post (herbicidal efficacy grade) (barnyard glass; [8]): 3 (70%-89% of herbicidal efficacy or phytotoxicity); False pimpernel pre (herbicidal efficacy grade) (false pimpernel [5]; [6]): 1 (1%-39% of herbicidal efficacy or phytotoxicity)
2 | COCC1(C)CN(Cc2ccccc2NS(=O)(=O)C(F)(F)F)C(=O)O1 (stereo not drawn) [Compound 1-137] | 4 (90%-100% of herbicidal efficacy or phytotoxicity) | 2 (40%-69% of herbicidal efficacy or phytotoxicity) | 4 (90%-100% of herbicidal efficacy or phytotoxicity) | 4 (90%-100% of herbicidal efficacy or phytotoxicity) | 4 (90%-100% of herbicidal efficacy or phytotoxicity) | 4 (90%-100% of herbicidal efficacy or phytotoxicity) | – | – | – | – | –
3 | O=C1OC(COc2ccccc2)CN1Cc1ccccc1NS(=O)(=O)C(F)(F)F (racemic) [Compound 1-51] | 3 (70%-89% of herbicidal efficacy or phytotoxicity) | 0 (0% of herbicidal efficacy or phytotoxicity) | 3 (70%-89% of herbicidal efficacy or phytotoxicity) | 4 (90%-100% of herbicidal efficacy or phytotoxicity) | 0 (0% of herbicidal efficacy or phytotoxicity) | 4 (90%-100% of herbicidal efficacy or phytotoxicity) | – | – | – | – | –
4 | CC(C)COC(=O)N(c1ccccc1CN1CC(C(C)(C)C)OC1=O)S(=O)(=O)C(F)(F)F (stereo not drawn) [Compound 1-34] | – | – | – | – | – | – | 4 (90%-100% of herbicidal efficacy or phytotoxicity) | 1 (1%-39% of herbicidal efficacy or phytotoxicity) | 4 (90%-100% of herbicidal efficacy or phytotoxicity) | 4 (90%-100% of herbicidal efficacy or phytotoxicity) | False pimpernel post (herbicidal efficacy grade) (false pimpernel [3]; [11]): 4 (90%-100% of herbicidal efficacy or phytotoxicity); False pimpernel pre (herbicidal efficacy grade) (false pimpernel [5]; dosage 1000 g/ha): 4 (90%-100% of herbicidal efficacy or phytotoxicity)
5 | CC(C)(C)C1CN(Cc2ccccc2NS(=O)(=O)C(F)(F)F)C(=O)O1 (stereo not drawn) [Compound 1-33] | – | – | – | – | – | – | 4 (90%-100% of herbicidal efficacy or phytotoxicity) | 2 (40%-69% of herbicidal efficacy or phytotoxicity) | 4 (90%-100% of herbicidal efficacy or phytotoxicity) | 4 (90%-100% of herbicidal efficacy or phytotoxicity) | False pimpernel post (herbicidal efficacy grade) (false pimpernel [3]; [11]): 4 (90%-100% of herbicidal efficacy or phytotoxicity); False pimpernel pre (herbicidal efficacy grade) (false pimpernel [5]; dosage 1000 g/ha): 4 (90%-100% of herbicidal efficacy or phytotoxicity)
6 | O=C1OC2CCCCC2N1Cc1ccccc1NS(=O)(=O)C(F)(F)F (stereo not drawn) [Compound 1-47] | – | – | – | – | – | – | 4 (90%-100% of herbicidal efficacy or phytotoxicity) | 2 (40%-69% of herbicidal efficacy or phytotoxicity) | 4 (90%-100% of herbicidal efficacy or phytotoxicity) | 4 (90%-100% of herbicidal efficacy or phytotoxicity) | False pimpernel post (herbicidal efficacy grade) (false pimpernel [3]; [11]): 4 (90%-100% of herbicidal efficacy or phytotoxicity); False pimpernel pre (herbicidal efficacy grade) (false pimpernel [5]; dosage 1000 g/ha): 4 (90%-100% of herbicidal efficacy or phytotoxicity)
7 | O=C1OC(C(F)(F)F)CN1Cc1ccccc1NS(=O)(=O)C(F)(F)F (stereo not drawn) [Compound 1-19] | 4 (90%-100% of herbicidal efficacy or phytotoxicity) | 0 (0% of herbicidal efficacy or phytotoxicity) | 2 (40%-69% of herbicidal efficacy or phytotoxicity) | 4 (90%-100% of herbicidal efficacy or phytotoxicity) | 2 (40%-69% of herbicidal efficacy or phytotoxicity) | 3 (70%-89% of herbicidal efficacy or phytotoxicity) | – | – | – | – | –
8 | COC(=O)N(c1ccccc1CN1CC2(CCCC2C)OC1=O)S(=O)(=O)C(F)(F)F (stereo not drawn) [Compound 1-162] | – | – | – | – | – | – | 4 (90%-100% of herbicidal efficacy or phytotoxicity) | 1 (1%-39% of herbicidal efficacy or phytotoxicity) | 4 (90%-100% of herbicidal efficacy or phytotoxicity) | 4 (90%-100% of herbicidal efficacy or phytotoxicity) | False pimpernel post (herbicidal efficacy grade) (false pimpernel [3]; [11]): 4 (90%-100% of herbicidal efficacy or phytotoxicity); False pimpernel pre (herbicidal efficacy grade) (false pimpernel [5]; dosage 1000 g/ha): 4 (90%-100% of herbicidal efficacy or phytotoxicity)
9 | CC(C)(C)OC(=O)NCC1CN(Cc2ccccc2NS(=O)(=O)C(F)(F)F)C(=O)O1 (racemic) [1-106] | 4 (90%-100% of herbicidal efficacy or phytotoxicity) | 0 (0% of herbicidal efficacy or phytotoxicity) | 2 (40%-69% of herbicidal efficacy or phytotoxicity) | 4 (90%-100% of herbicidal efficacy or phytotoxicity) | 0 (0% of herbicidal efficacy or phytotoxicity) | 2 (40%-69% of herbicidal efficacy or phytotoxicity) | – | – | – | – | –
10 | CC1CCCC12CN(Cc1ccccc1NS(=O)(=O)C(F)(F)F)C(=O)O2 (stereo not drawn) [Compound 1-160] | 4 (90%-100% of herbicidal efficacy or phytotoxicity) | 1 (1%-39% of herbicidal efficacy or phytotoxicity) | 4 (90%-100% of herbicidal efficacy or phytotoxicity) | 4 (90%-100% of herbicidal efficacy or phytotoxicity) | 4 (90%-100% of herbicidal efficacy or phytotoxicity) | 4 (90%-100% of herbicidal efficacy or phytotoxicity) | – | – | – | – | –
11 | CCc1cn(Cc2ccccc2NS(=O)(=O)C(F)(F)F)c(=O)o1 [Compound 1-209] | 3 (70%-89% of herbicidal efficacy or phytotoxicity) | 1 (1%-39% of herbicidal efficacy or phytotoxicity) | 2 (40%-69% of herbicidal efficacy or phytotoxicity) | 3 (70%-89% of herbicidal efficacy or phytotoxicity) | – | 4 (90%-100% of herbicidal efficacy or phytotoxicity) | – | – | – | – | –
12 | O=C1OC2(CC2)CN1Cc1ccccc1NS(=O)(=O)C(F)(F)F [Compound 1-88] | 4 (90%-100% of herbicidal efficacy or phytotoxicity) | 1 (1%-39% of herbicidal efficacy or phytotoxicity) | 4 (90%-100% of herbicidal efficacy or phytotoxicity) | 4 (90%-100% of herbicidal efficacy or phytotoxicity) | – | 4 (90%-100% of herbicidal efficacy or phytotoxicity) | – | – | – | – | –
13 | CC1(C)OC(=O)N(Cc2cc(Cl)ccc2NS(=O)(=O)C(F)(F)F)C1=O [1-211] | – | – | – | – | – | – | 4 (90%-100% of herbicidal efficacy or phytotoxicity) | 4 (90%-100% of herbicidal efficacy or phytotoxicity) | 4 (90%-100% of herbicidal efficacy or phytotoxicity) | 4 (90%-100% of herbicidal efficacy or phytotoxicity) | –
14 | CC1(C)CN(Cc2cccc(O)c2NS(=O)(=O)C(F)(F)F)C(=O)O1 [1-214] | – | – | – | – | – | – | – | – | – | – | Bulrush pre (herbicidal efficacy grade) (bulrush [1]; [6]): 1 (1%-39% of herbicidal efficacy or phytotoxicity); Phytotoxicity to paddy rice (grade) [2, 7]: 0 (0% of herbicidal efficacy or phytotoxicity); Bulrush post (herbicidal efficacy grade) (bulrush [4]; [8]): 1 (1%-39% of herbicidal efficacy or phytotoxicity); Burnyard grass post (herbicidal efficacy grade) (barnyard glass; [8]): 0 (0% of herbicidal efficacy or phytotoxicity)
